{
  "source": "paper PMC11410929",
  "about": "“Biochemical and crystallographic studies of L,D-transpeptidase 2 from Mycobacterium tuberculosis with its natural monomer substrate” (Communications Biology, 2024)",
  "system": "LdtMt2^C354S",
  "format": "biochemical, Mycobacterium tuberculosis",
  "data": [
    {"substance": "GlcNAc-MurNAc-L-Ala-D-iGluNH2-m-DAPNH2-D-Ala-D-Ala [Compound 4]", "values": [
      {"measurement": "Product formation with LdtMt2^C354S", "value": "no product formation was observed"}
    ]}
  ]
}
